In ChEMBL document CHEMBL5724914, “Linking interpersonal differences in gut microbiota composition and drug biotransformation activity” (2024):

Assays:
[1] = (§1) The drug is tested on WLS-006 corresponding to human gut metagenome with ENA study accession number: PRJEB37062 and ENA sample accession number: ERS12561741 for biotransformation under anaerobic condition. The drug concentrations were measured over 9 timepoints collected between 0 and 24 hours of incubation by liquid-chromatography-coupled mass spectrometry (LC–MS); details: 2 µM
[2] = human gut metagenome, 24 h, 2 µM
[3] = as §1, with “WLS-350” for “WLS-006”, “ERS12561789” for “ERS12561741”; details: 2 µM
[4] = as §1, with “WLS-073” for “WLS-006”, “ERS12561749” for “ERS12561741”; details: 2 µM
[5] = human gut metagenome, 24 h, 2 µM; remark: listed apart in the source
[6] = human gut metagenome, 24 h, 2 µM; remark: listed apart in the source
[7] = as §1, with “Z-020” for “WLS-006”, “rabbit” for “human”, “ERS12561819” for “ERS12561741”; details: 2 µM
[8] = human gut metagenome, 24 h, 2 µM; remark: listed apart in the source
[9] = as §1, with “Z-025” for “WLS-006”, “rabbit” for “human”, “ERS12561824” for “ERS12561741”; details: 2 µM
[10] = human gut metagenome, 24 h, 2 µM; remark: listed apart in the source
[11] = as §1, with “WLS-082” for “WLS-006”, “ERS12561751” for “ERS12561741”; details: 2 µM
[12] = human gut metagenome, 24 h, 2 µM; remark: listed apart in the source
[13] = human gut metagenome, 24 h, 2 µM; remark: listed apart in the source
[14] = human gut metagenome, 24 h, 2 µM; remark: listed apart in the source
[15] = as §1, with “Z-004” for “WLS-006”, “to” for “to human gut”, “ERS12561804” for “ERS12561741”; details: 2 µM
[16] = as §1, with “Z-030” for “WLS-006”, “mouse” for “human”, “ERS12561829” for “ERS12561741”; details: 2 µM
[17] = human gut metagenome, 24 h, 2 µM; remark: listed apart in the source
[18] = human gut metagenome, 24 h, 2 µM; remark: listed apart in the source
[19] = human gut metagenome, 24 h, 2 µM; remark: listed apart in the source
[20] = as §1, with “Z-005” for “WLS-006”, “to” for “to human gut”, “ERS12561805” for “ERS12561741”; details: 2 µM
Further: call rule not given here.

| SMILES | Bacterial Biotransformation [1] | Bacterial Biotransformation [2] | Bacterial Biotransformation [3] | Bacterial Biotransformation [4] | Bacterial Biotransformation [5] | Bacterial Biotransformation [6] | Bacterial Biotransformation [7] | Bacterial Biotransformation [8] | Bacterial Biotransformation [9] | Bacterial Biotransformation [10] | Bacterial Biotransformation [11] | Bacterial Biotransformation [12] | Bacterial Biotransformation [13] | Bacterial Biotransformation [14] | Bacterial Biotransformation [15] | Bacterial Biotransformation [16] | Bacterial Biotransformation [17] | Bacterial Biotransformation [18] | Bacterial Biotransformation [19] | Bacterial Biotransformation [20] |
| --- | --- | --- | --- | --- | --- | --- | --- | --- | --- | --- | --- | --- | --- | --- | --- | --- | --- | --- | --- | --- |
| CN1CCOC(c2ccccc2)c2ccccc2C1 (stereo not given) [NEFOPAM] | Compound metabolized | Compound metabolized | Compound metabolized | Compound NOT metabolized | Compound metabolized | Compound NOT metabolized | Compound NOT metabolized | Compound NOT metabolized | Compound NOT metabolized | Compound metabolized | Compound NOT metabolized | Compound NOT metabolized | Compound metabolized | Compound metabolized | Compound NOT metabolized | Compound NOT metabolized | Compound NOT metabolized | Compound NOT metabolized | Compound metabolized | Compound NOT metabolized |
| Cc1ccnc2c1NC(=O)c1cccnc1N2C1CC1 [NEVIRAPINE] | Compound NOT metabolized | Compound metabolized | Compound metabolized | Compound NOT metabolized | Compound NOT metabolized | Compound NOT metabolized | Compound NOT metabolized | Compound NOT metabolized | Compound NOT metabolized | Compound metabolized | Compound NOT metabolized | Compound NOT metabolized | Compound metabolized | Compound NOT metabolized | Compound NOT metabolized | Compound NOT metabolized | Compound metabolized | Compound NOT metabolized | Compound metabolized | Compound NOT metabolized |
| CO[C@]12C[C@@H](COC(=O)c3cncc(Br)c3)CN(C)[C@@H]1Cc1cn(C)c3cccc2c13 [NICERGOLINE] | Compound metabolized | Compound NOT metabolized | Compound NOT metabolized | Compound metabolized | Compound NOT metabolized | Compound NOT metabolized | Compound NOT metabolized | Compound NOT metabolized | Compound metabolized | Compound NOT metabolized | Compound NOT metabolized | Compound NOT metabolized | Compound metabolized | Compound NOT metabolized | Compound metabolized | Compound NOT metabolized | Compound NOT metabolized | Compound NOT metabolized | Compound metabolized | Compound metabolized |
| COc1ccc2c(c1OC)C(=O)O[C@@H]2[C@H]1c2c(cc3c(c2OC)OCO3)CCN1C [NOSCAPINE] | Compound metabolized | Compound NOT metabolized | Compound metabolized | Compound metabolized | Compound NOT metabolized | Compound NOT metabolized | Compound metabolized | Compound metabolized | Compound NOT metabolized | Compound NOT metabolized | Compound NOT metabolized | Compound NOT metabolized | Compound NOT metabolized | Compound NOT metabolized | Compound NOT metabolized | Compound NOT metabolized | Compound NOT metabolized | Compound metabolized | Compound metabolized | Compound metabolized |
| CCCc1nc(C(C)(C)O)c(C(=O)OCc2oc(=O)oc2C)n1Cc1ccc(-c2ccccc2-c2nnn[nH]2)cc1 [OLMESARTAN MEDOXOMIL] | Compound metabolized | Compound metabolized | Compound NOT metabolized | Compound metabolized | Compound metabolized | Compound metabolized | Compound metabolized | Compound metabolized | Compound metabolized | Compound metabolized | Compound metabolized | Compound NOT metabolized | Compound metabolized | Compound metabolized | Compound metabolized | Compound NOT metabolized | Compound metabolized | Compound metabolized | Compound metabolized | Compound metabolized |
| CCN(CC)CC#CCOC(=O)C(O)(c1ccccc1)C1CCCCC1.Cl (stereo not given) [OXYBUTYNIN CHLORIDE] | Compound metabolized | Compound metabolized | Compound metabolized | Compound NOT metabolized | Compound metabolized | Compound metabolized | Compound metabolized | Compound metabolized | Compound NOT metabolized | Compound metabolized | Compound metabolized | Compound NOT metabolized | Compound metabolized | Compound metabolized | Compound metabolized | Compound NOT metabolized | Compound NOT metabolized | Compound metabolized | Compound metabolized | Compound metabolized |
| Fc1ccc([C@@H]2CCNC[C@H]2COc2ccc3c(c2)OCO3)cc1 [PAROXETINE] | Compound NOT metabolized | Compound metabolized | Compound metabolized | Compound NOT metabolized | Compound metabolized | Compound NOT metabolized | Compound NOT metabolized | Compound NOT metabolized | Compound NOT metabolized | Compound metabolized | Compound metabolized | Compound NOT metabolized | Compound metabolized | Compound NOT metabolized | Compound NOT metabolized | Compound NOT metabolized | Compound NOT metabolized | Compound metabolized | Compound metabolized | Compound metabolized |
| O=c1[nH]c2ccccc2n1C1CCN(CCCC(c2ccc(F)cc2)c2ccc(F)cc2)CC1 [PIMOZIDE] | Compound metabolized | Compound metabolized | Compound metabolized | Compound metabolized | Compound metabolized | Compound metabolized | Compound metabolized | Compound NOT metabolized | Compound metabolized | Compound metabolized | Compound metabolized | Compound NOT metabolized | Compound metabolized | Compound NOT metabolized | Compound NOT metabolized | Compound NOT metabolized | Compound NOT metabolized | Compound NOT metabolized | Compound metabolized | Compound metabolized |
